In one assay the target is T1, MC1r (Homo sapiens, UniProt Q01726).
T1 construct: expressed in transfected cells; host or cells: HEK-293 (membrane homogenates)
Put plainly: Competitive inhibition binding assay, MC1r. The note with it: binding studies. Here is the method: (§1) A competitive inhibition binding assay is performed using membrane homogenates prepared from HEK-293 cells that express recombinant hMC1ra, hMC4r, hMC3r, or hMC5r, and from B16-F10 mouse melanoma cells (containing endogenous MC1r). In the examples that follow, all values are for human recombinant receptors unless otherwise noted. Assays are performed in 96 well GF/B Millipore multiscreen filtration plates (MAFB NOB10) pre-coated with 0.5% bovine serum albumin (Fraction V). […] After incubation for 60 to 90 minutes at 37° C., the assay mixture is filtered and the membranes washed three times with ice-cold buffer. Filters are dried and counted in a gamma counter for bound radioactivity.
(§2) Maximal specific binding (100%) is defined as the difference in radioactivity (cpm) bound to cell membranes in the absence and presence of 1 μM NDP-α-MSH. […] Each assay is conducted in duplicate or triplicate and the actual mean values are described, with results less than 0% reported as 0%. Ki values for test compounds are determined using Graph-Pad Prism® curve-fitting software.

Assay [1] has as its target T2, MC4r (Homo sapiens, UniProt P32245). Put plainly: cAMP functional study in human MC4r expression system approximating maximal physiologic receptor densities. It counts as cell-based. Set-up: host or cells: TREx-293. The note with it: low receptor density human MC4r system; for Emax: read-out: relative efficacy, compared to NDP-α-MSH. How it is done:
Assay for Agonist Activity. Accumulation of intracellular cAMP was examined as a measure of the ability of the peptides of the present invention to elicit a functional response in HEK-293 cells that express MC4-R. Confluent HEK-293 cells that express recombinant hMC4-R were detached from culture plates by incubation in enzyme-free cell dissociation buffer. Dispersed cells were suspended in Hanks' Balanced Salt Solution containing 10 mM HEPES (pH 7.5), 1 mM MgCl2, 1 mM glutamine, 0.5% albumin and 0.3 mM 3-isobutyl-1-methyl-xanthine (IBMX), a phosphodiesterase inhibitor. The cells were plated in 96-well plates at a density of 0.5×10^5 cells per well and pre-incubated for 10 minutes. Cells were exposed for 15 minutes at 37° C. to peptides of the present invention dissolved in DMSO (final DMSO concentration of 1%) at a concentration range of 0.05-5000 nM in a total assay volume of 200 μL. NDP-α-MSH was used as the reference agonist. cAMP levels were determined by an HTRF® cAMP cell-based assay system from Cisbio Bioassays utilizing cryptate-labeled anti-cAMP and d2-labeled cAMP, with plates read on a Perkin-Elmer Victor plate reader at […]. Data analysis was performed by nonlinear regression analysis with Graph-Pad Prism® software. The maximum efficacies of the test peptides of the present invention were compared to that achieved by the reference melanocortin agonist NDP-αMSH.
Low Receptor Density Systems. In functional studies preferably a human MC4r expression system approximating maximal human physiologic receptor densities is employed. In one aspect, a tetracycline-regulated mammalian expression system that uses regulatory elements from the E. coli Tn10-encoded tetracycline (Tet) resistance operon was employed (T-REx™ System, Invitrogen). By use of the T-REx™ System, expression of the gene of interest, the human MC4-R gene, was repressed in the absence of tetracycline or doxycycline and induced in the presence of tetracycline or doxycycline, with receptor density being dependent on the concentration of tetracycline or doxycycline. See generally Yao F. et al: Tetracycline repressor, tetR, rather than the tetR-mammalian cell transcription factor fusion derivatives, regulates inducible gene expression in mammalian cells. Hum. Gene Ther. 9:1939-1950 (1998), incorporated here by reference. Regulation was based on the binding of tetracycline or doxycycline, a derivative of tetracycline, to the Tet repressor and derepression of the promoter controlling expression of the human MC4-R gene. In general tetracycline or related regulators, such as tetracycline-derivatives, may be used to induce the gene expression. An inducible expression plasmid for expression of human MC4-R gene under the control of the strong human cytomegalovirus immediate-early (CMV) promoter and two tetracycline operator 2 (TetO2) sites was employed, together with a regulatory plasmid, pcDNA6/TR, which encodes the Tet repressor (TetR) under the control of the human SV40 promoter. Thus, expression of the human MC4-R gene from the inducible expression vector was controlled by the strong CMV promoter into which 2 copies of the tet operator 2 (TetO2) sequence had been inserted in tandem. The TetO2 sequences consisted of 2 copies of 19-nucleotide sequence separated by a 2 base pair spacer. Each 19 nucleotide TetO2 sequence served as the binding site for 2 molecules of the Tet repressor. The expression vector pcDNA4/TO/MC4R was introduced into TREx-293 (Invitrogen, R710-07), a cell line stably expressing the tetracycline repressor pcDNA6/TR using lipofectamin 2000 reagent (Invitrogen, 11668-019). Alternatively, both the expression vector and repressor are introduced into host cells by standard transformation or transfection methods.

Assay [2] addresses T2, MC4r. The assay can be described thus: Competitive inhibition binding assay, MC4r. Set-up: expressed in transfected cells; host or cells: HEK-293 (membrane homogenates). The note with it: binding studies. Here is the method: as §1, §2
Competitive Binding Assay Using Eu-NDP-α-MSH. Alternatively, a competitive inhibition binding assay is performed employing Eu-NDP-α-MSH (PerkinElmer Life Sciences catalog No. AD0225) with determination by time-resolved fluorometry (TRF) of the lanthanide chelate. […] After incubation for 90 minutes at 37° C., the reaction was stopped by filtration over Acro Well 96-well filter plates (Pall Life Sciences). The filter plates were washed 4 times with 200 μL of ice-cold phosphate-buffered saline. DELFIA Enhancement solution (PerkinElmer Life Sciences) was added to each well. The plates were incubated on a shaker for 15 minutes and read at 340 nm excitation and 615 nm emission wavelengths. Each assay was conducted in duplicate and mean values were utilized. Ki values were determined by curve-fitting with Graph-Pad Prism® software using a one-site fixed-slope competition binding model.

Our source for the Ki, Emax and EC50 values is patent US20210198201A1, “Orally Active Melanocortin Receptor-4 Compounds” (Palatin Technologies, Inc., priority 2018, published 2021).

The term Ki denotes the equilibrium dissociation constant of an inhibitor or competing ligand from its target. A high value points to a looser hold on the target. Broadly, the EC50 is the concentration needed to bring the measured effect to its halfway point.

T2 sequence (P32245 whole entry): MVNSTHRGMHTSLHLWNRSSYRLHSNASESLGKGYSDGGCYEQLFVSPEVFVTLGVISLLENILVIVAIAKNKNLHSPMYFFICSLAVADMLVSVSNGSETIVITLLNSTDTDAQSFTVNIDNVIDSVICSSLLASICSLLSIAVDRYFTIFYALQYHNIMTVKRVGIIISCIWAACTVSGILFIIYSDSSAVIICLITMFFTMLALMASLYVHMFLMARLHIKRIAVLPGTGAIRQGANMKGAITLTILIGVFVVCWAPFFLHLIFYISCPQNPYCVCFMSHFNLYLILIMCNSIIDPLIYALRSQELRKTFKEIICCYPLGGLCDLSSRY
T1 sequence (Q01726 whole entry): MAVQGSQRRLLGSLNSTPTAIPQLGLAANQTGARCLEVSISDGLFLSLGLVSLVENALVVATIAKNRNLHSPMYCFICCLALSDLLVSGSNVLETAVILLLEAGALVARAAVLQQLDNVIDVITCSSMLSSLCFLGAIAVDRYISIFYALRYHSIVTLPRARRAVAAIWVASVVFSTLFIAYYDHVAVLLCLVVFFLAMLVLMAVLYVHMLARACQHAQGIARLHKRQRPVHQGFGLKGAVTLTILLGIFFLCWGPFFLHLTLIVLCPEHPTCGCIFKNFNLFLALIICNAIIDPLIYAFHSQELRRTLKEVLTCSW

On to `CC(=O)N1CCC(N(CC(C)C)N2CCN(C(=O)[C@@H](Cc3ccc(Cl)cc3)NC(=O)C3(N)CC3)CC2)CC1` [Compound 7.2, N-[(1R)-2-[4-[(1-acetyl-4-piperidyl)-isobutyl-amino]piperazin-1-yl]-1-[(4-chlorophenyl)methyl]-2-oxo-ethyl]-1-amino-cyclopropanecarboxamide], for which the Ki worked out at 40 nM at MC1r and 5 nM on MC4r [2]. For the same compound, the Emax at MC4r [1] worked out at 3%.
`CCNC(=O)N1CCC(N(CC(C)C)N2CCN(C(=O)[C@@H](Cc3ccc(Cl)cc3)NC(=O)C(C)(C)N)CC2)CC1` [Compound 7.8, 4-[[4-[(2R)-2-[(2-amino-2-methyl-propanoyl)amino]-3-(4-chlorophenyl)propanoyl]piperazin-1-yl]-isobutyl-amino]-N-ethyl-piperidine-1-carboxamide] showed an inhibition constant (Ki) at MC1r of 150 nM. In addition, at MC4r [1], a half-maximal effect (EC50) was put at 52 nM and the Emax was 28%. The same compound yielded a Ki on MC4r [2] of 6 nM.
Consider `CC(C)CN(C1CCN(C(=O)CO)CC1)N1CCN(C(=O)[C@@H](Cc2ccc(Cl)cc2)NC(=O)C(C)(C)N)CC1` [Compound 7.10, 2-amino-N-[(1R)-1-[(4-chlorophenyl)methyl]-2-[4-[[1-(2-hydroxyacetyl)-4-piperidyl]-isobutyl-amino]piperazin-1-yl]-2-oxo-ethyl]-2-methyl-propanamide], for which, on MC4r [1], it took 9 nM to reach a half-maximal effect (EC50) and the Emax came to 22%. On MC4r [2], this compound came in with a Ki of 5 nM.
